The assay has as its target Akt1 (Homo sapiens, UniProt P31749). The assay is described as follows: in vitro inhibition of Akt, fluorescence polarization assay (IMAP Akt Assay Kit). The format is biochemical. The protocol: FIG. 9 is a table of investigations into the hydrophobic interactions between the GSK-3 residues central hydrophobic contacts and Akt. The values reported are an average of three independent binding curves using an IMAP™ Akt Assay Kit (Molecular Devices). Reactions were conducted in wells with 20.0 μL of 10 mM Tris-HCl (pH 7.2), 10 mM MgCl2, 0.1% BSA, 0.05% NaN3, 1 mM DTT, 100 nM 5FAM-[…]-COOH, 5 μM ATP, Akt1, and inhibitor. Reaction mixtures were incubated for 1 h at room temperature and then quenched with 60 μL of the IMAP-binding solution. The reactions were equilibrated for 1 h at room temperature then data points were collected and analyzed.
FIG. 14 is a table showing the optimization of C-terminal and central substituents for non-peptide inhibitors. ^a Reported values are an average of three independent-binding curves utilizing an IMAP® Akt Assay Kit (Molecular Devices). […] The reactions were equilibrated for 1 h at room temperature then data points were collected and analyzed. […]
Peptidomimetic inhibitors were generated directly from the minimal substrate sequence by systematic replacement of the non-critical amino acids and tested for in vitro inhibition of Akt using a fluorescence polarization assay system, shown in FIG. 3. […]

The results in this text go back to US9896668B2, “Substrate-mimetic AKT inhibitor” (University of South Florida, priority 2006, dated 2018).

Square brackets hold non-standard residues; d marks the D form. Peptide text beside a SMILES is read from it. * marks the point of attachment. 4Abz = Nc1ccc(C(=O)O)cc1; NHBn = c1ccc(CN*)cc1

Chain of Akt1 (P31749 whole entry): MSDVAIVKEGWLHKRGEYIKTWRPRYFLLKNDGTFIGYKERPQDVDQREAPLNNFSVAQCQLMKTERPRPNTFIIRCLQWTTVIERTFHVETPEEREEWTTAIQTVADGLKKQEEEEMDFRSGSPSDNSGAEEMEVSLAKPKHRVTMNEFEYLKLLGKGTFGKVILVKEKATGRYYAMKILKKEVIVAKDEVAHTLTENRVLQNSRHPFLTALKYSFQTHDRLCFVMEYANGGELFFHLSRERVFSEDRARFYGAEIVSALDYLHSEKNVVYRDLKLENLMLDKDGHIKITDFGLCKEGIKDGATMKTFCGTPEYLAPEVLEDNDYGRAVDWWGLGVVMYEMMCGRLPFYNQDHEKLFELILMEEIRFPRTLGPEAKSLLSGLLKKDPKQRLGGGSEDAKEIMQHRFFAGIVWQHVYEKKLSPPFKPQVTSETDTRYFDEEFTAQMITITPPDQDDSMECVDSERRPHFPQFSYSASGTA

Under “IMAP Akt Assay Kit, 5 μM ATP, 100 nM 5FAM-GRPRTSSFAEG-COOH, 1 h room temperature”, `CC(=O)NCC(=O)N[C@@H](CCCNC(=N)N)C(=O)N1CCC[C@H]1C(=O)N[C@@H](CCCNC(=N)N)C(=O)Nc1ccc(C(=O)N[C@H](C(=O)N[C@@H](Cc2ccccc2)C(=O)NCc2ccccc2)C(C)C)cc1` [Inhibitor 10] (Ac-GRPR[4Abz]VF-NHBn) came in with an IC50 of 28 µM. Besides, the “fold increase in potency/activity versus parent inhibitor” value (in vitro Akt inhibition) turned out to be 10 fold.
